Assays:
FLT3 kinase = FLT3 kinase (Homo sapiens (Human), UniProt P36888); experiment: FLT3 kinase assay (radiometric); format: biochemical; conditions: bound
Description: Inhibition of FLT3 kinase activity by a test compound disclosed herein was estimated by radiometric assay. Standard assay conditions were 5 ng of recombinant FLT3 (Thermo Fisher) with 2 μg of substrate Poly-(Glu 4:Tyr 1) (sigma) in the assay buffer in kinase reaction buffer (10 mM MOPS pH 7.0, 0.21 mM EDTA, 0.5% glycerol, 0.001% Brij-35, 0.01 2-mercaptoehtanol, 1 mg/ml BSA, MgCl2 10 mM, 10 μM ATP, 0.1 μCi per well [^33P]-ATP, in the presence of test compound (diluted in final concentration of 4% DMSO) or DMSO control, with a final volume of 25 μl for 60 minutes at 30° C. The reaction was stopped by adding 5 μl of 3% phosphoric acid solution. Total reaction solution was then harvested onto a filter plate (UniFilter-96 GF/B, PerkinElmer), and washed 20 times for 5 min with dH2O. 30 μl of MicroScint™-20 Cocktail (PerkinElmer) was added to dried plate. The plate was sealed and counted using a TopCount scintillation detector (PerkinElmer). […] The IC50 values of quinoxaline compounds of this invention against FLT3 kinase were determined using the GraphPad Prism 5 software.
(§1) The IC50 values for selected quinoxaline compounds of this invention against CSF-1R, c-KIT, FLT3, and PDGFRβ are summarized in Table 3.

PDGFRβ kinase = PDGFRβ kinase (Homo sapiens (Human), UniProt P09619); experiment: PDGFRβ kinase assay (radiometric); format: biochemical; conditions: bound
PDGFRβ kinase, sequence (P09619 33-1106): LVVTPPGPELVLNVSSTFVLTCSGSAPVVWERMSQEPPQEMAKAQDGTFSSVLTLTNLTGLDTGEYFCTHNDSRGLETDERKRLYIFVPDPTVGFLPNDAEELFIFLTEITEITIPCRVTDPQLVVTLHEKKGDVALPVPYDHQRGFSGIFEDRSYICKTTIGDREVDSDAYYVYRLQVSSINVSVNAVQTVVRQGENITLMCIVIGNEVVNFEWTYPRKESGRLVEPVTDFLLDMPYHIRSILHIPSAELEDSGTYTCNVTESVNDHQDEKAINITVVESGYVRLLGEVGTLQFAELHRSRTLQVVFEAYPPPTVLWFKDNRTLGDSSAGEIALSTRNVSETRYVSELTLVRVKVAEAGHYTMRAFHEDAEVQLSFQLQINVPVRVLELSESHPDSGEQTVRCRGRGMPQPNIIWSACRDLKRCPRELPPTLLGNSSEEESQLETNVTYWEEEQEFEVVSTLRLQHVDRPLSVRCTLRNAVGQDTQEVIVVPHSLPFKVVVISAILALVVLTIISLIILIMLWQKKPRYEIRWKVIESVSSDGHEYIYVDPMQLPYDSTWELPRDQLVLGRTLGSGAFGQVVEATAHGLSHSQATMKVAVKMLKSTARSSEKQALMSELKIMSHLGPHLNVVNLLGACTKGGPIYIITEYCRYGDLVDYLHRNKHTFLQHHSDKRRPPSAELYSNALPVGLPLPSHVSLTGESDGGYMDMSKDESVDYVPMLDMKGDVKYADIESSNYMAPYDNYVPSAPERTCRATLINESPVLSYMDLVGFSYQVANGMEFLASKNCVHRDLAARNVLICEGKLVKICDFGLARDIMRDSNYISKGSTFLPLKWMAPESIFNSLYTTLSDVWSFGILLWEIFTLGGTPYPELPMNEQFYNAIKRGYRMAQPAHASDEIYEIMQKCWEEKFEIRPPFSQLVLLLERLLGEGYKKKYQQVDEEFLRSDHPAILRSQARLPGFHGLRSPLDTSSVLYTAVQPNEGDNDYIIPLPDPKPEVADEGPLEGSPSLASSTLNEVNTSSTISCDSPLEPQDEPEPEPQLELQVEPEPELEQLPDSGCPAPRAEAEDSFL
Description: (§2) Inhibition of PDGFRβ kinase activity by a test compound disclosed herein was estimated by radiometric assay. Standard assay conditions were 10 ng of recombinant PDGFRβ (SignalChem) with 2 μg of substrate Poly-(Glu 4:Tyr 1) (sigma) in the assay buffer in kinase reaction buffer (10 mM MOPS pH 7.0, 0.21 mM EDTA, 0.5% glycerol, 0.001% Brij-35, 0.01 2-mercaptoehtanol, 1 mg/ml BSA, 10 mM MgCl2, 10 mM MnCl2, 10 μM ATP, 0.1 μCi per well [^33P]-ATP), in the presence of test compound (diluted in final concentration of 4% DMSO) or DMSO control, with a final volume of 25 μl for 60 minutes at 30° C. The reaction was stopped by adding 5 μl of 3% phosphoric acid solution. Total reaction solution was then harvested onto a filter plate (UniFilter-96 GF/B, PerkinElmer), and washed 20 times for 5 min with dH2O. 30 μl of MicroScint™-20 Cocktail (PerkinElmer) was added to dried plate. The plate was sealed and counted using a TopCount scintillation detector (PerkinElmer). […] The IC50 values of quinoxaline compounds of this invention against PDGFRβ kinase were determined using the GraphPad Prism 5 software.
as §1

c-KIT kinase = c-KIT kinase (Homo sapiens (Human), UniProt P10721); experiment: c-KIT kinase assay (radiometric); format: biochemical
c-KIT kinase, sequence (P10721 26-976): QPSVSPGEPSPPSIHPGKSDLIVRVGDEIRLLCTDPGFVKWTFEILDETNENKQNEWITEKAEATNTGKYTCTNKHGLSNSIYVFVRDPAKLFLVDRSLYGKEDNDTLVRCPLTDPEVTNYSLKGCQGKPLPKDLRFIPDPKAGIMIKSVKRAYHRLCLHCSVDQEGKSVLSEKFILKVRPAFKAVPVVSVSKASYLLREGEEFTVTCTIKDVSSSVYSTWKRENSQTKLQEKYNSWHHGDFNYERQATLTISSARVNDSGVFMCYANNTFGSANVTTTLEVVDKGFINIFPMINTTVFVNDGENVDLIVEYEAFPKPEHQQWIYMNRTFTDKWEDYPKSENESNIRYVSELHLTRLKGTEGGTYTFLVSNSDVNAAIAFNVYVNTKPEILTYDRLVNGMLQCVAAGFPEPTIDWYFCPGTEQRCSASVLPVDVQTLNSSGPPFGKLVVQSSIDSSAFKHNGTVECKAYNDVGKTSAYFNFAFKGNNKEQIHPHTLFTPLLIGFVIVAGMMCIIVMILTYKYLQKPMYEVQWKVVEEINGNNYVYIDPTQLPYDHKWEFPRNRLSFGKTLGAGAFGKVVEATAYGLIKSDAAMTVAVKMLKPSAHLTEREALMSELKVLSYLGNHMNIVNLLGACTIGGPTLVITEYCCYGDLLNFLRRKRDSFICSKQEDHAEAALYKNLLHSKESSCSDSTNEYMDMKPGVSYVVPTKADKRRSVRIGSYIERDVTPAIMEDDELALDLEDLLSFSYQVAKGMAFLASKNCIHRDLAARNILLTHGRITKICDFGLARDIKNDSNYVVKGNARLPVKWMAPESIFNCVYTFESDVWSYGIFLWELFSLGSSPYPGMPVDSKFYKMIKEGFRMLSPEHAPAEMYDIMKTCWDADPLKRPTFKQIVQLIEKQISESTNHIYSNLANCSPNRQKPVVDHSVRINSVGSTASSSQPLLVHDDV
Description: as §2, with “of c-KIT” for “of PDGFRβ”, “were 20” for “were 10”, “recombinant c-Kit” for “recombinant PDGFRβ”, “well [^33P]-ATP,” for “well [^33P]-ATP),”, “against c-KIT” for “against PDGFRβ”
as §1

[1] = system: THP-1 human acute monocytic leukemia cell harboring NRAS G12D mutation; experiment: THP-1 cell proliferation assay (counter screen, CellTiter-96); format: cell-based; conditions: Cytotoxicity, THP-1 cells (counter screen), 72 hours
Description: (§3) Inhibition of cell growth by compounds was measured using CellTiter™-96 assay. The cytotoxicity of compounds was evaluated in CSF-1-dependent M-NFS-60 mouse myeloid leukemia cell, FLT3 signal addicted MV4-11 human acute myeloid leukemia cell with FLT3-ITD mutation, c-KIT signal addicted Kasumi-1 human acute myeloid leukemia cell with c-KIT N822K activating mutation, and THP-1 human acute monocytic leukemia cell harboring NRAS G12D mutation.
THP-1 human acute monocytic leukemia cells harbor NRAS G12D mutation, which renders cell proliferate independently of class III RTKs signal. […] Cells were allowed to expand until reaching saturation at which point they were subcultured or harvested for assay use.
(§4) M-NFS-60, Kasumi-1, MV4-11 and THP-1 cells were seeded into 96-well plates at 2000, 64000, 6500, and 5000 cells/well, respectively, and incubated at 37° C., 5% CO2 overnight. Then, these seeded cells were treated with increasing concentrations of the test compounds and incubated for another 72 hours. At the end of the incubation, CellTiter96® AQueous One Solution Reagent (Promega) was added and incubated for 4 hours. Cell viability was determined by measuring absorbance at 490 nm using EMax® microplate reader (Molecular Devices).

[2] = system: MV4-11 human acute myeloid leukemia cell with FLT3-ITD mutation; experiment: MV4-11 cell proliferation assay (CellTiter-96); format: cell-based; conditions: Cytotoxicity, MV4-11 cells, 72 hours
Description: as §3
(§5) The compounds disclosed herein were tested in MV4-11 cell proliferation assay to determine their cellular potency against FLT3 kinase. MV4-11 human acute myeloid leukemia cells harbor ligand-independent FLT3-ITD activating mutation, which render its proliferation FLT3-ITD dependent. Inhibition of FLT3 kinase activity will cause reduced growth and/or cell death. […] Cells were allowed to expand until reaching saturation at which point they were subcultured or harvested for assay use.
as §4

[3] = system: CSF-1-dependent M-NFS-60 mouse myeloid leukemia cell; experiment: M-NFS-60 cell proliferation assay (CellTiter-96); format: cell-based; conditions: Cytotoxicity, M-NFS-60 cells, 72 hours
Description: as §3
The compounds disclosed herein were tested in M-NFS-60 cell proliferation assay to determine their cellular potency against CSF-1R. […] Inhibition of CSF-1R kinase activity will cause reduced growth and/or cell death. […] Cells were allowed to expand until reaching saturation at which point they were subcultured or harvested for assay use.
as §4

[4] = system: Kasumi-1 human acute myeloid leukemia cell with c-KIT N822K activating mutation; experiment: Kasumi-1 cell proliferation assay (CellTiter-96); format: cell-based; conditions: Cytotoxicity, Kasumi-1 cells, 72 hours
Description: as §3
as §5, with “Kasumi” for “MV4-11”, “c-KIT” for “FLT3”, “N822K c-KIT” for “FLT3-ITD”, “thus the cell” for “which render its”, “relied on c-KIT signal.” for “FLT3-ITD dependent.”
as §4

FLT3 kinase, sequence (P36888 27-993): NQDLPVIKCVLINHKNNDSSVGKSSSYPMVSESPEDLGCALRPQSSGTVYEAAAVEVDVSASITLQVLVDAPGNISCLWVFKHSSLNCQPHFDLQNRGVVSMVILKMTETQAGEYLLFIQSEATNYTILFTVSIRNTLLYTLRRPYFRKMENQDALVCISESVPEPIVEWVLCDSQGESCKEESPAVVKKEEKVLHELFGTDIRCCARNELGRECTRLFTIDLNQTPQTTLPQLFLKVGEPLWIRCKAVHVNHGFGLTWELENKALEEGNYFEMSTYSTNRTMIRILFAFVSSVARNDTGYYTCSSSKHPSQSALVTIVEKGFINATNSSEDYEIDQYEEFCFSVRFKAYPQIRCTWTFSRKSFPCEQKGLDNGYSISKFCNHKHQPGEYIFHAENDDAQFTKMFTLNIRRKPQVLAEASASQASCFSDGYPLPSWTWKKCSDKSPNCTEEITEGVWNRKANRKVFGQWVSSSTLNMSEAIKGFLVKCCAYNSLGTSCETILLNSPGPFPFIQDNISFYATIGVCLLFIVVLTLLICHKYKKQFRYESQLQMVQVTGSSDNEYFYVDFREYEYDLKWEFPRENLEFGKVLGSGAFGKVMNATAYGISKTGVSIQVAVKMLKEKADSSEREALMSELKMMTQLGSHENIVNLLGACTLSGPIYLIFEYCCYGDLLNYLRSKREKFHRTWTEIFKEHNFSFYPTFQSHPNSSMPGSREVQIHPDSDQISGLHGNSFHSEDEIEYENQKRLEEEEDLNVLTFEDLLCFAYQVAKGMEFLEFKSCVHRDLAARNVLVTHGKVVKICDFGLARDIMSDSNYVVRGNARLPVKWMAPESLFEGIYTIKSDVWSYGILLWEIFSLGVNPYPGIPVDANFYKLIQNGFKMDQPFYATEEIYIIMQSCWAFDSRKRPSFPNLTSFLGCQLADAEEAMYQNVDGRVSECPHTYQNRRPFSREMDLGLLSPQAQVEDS

COc1ccc(COc2ccc(Oc3ccc4ncc(OC)nc4c3C#N)cc2OC)cc1 [Example 26, 3-methoxy-6-(3-methoxy-4-((4-methoxybenzyl)oxy)phenoxy)quinoxaline-5-carbonitrile]
IC50 (FLT3 kinase): > 1 µM
IC50 (PDGFRβ kinase): > 1 µM
IC50 (c-KIT kinase; bound): > 1 µM

COc1cnc2ccc(Nc3ccc(NCc4ccc(C(F)(F)F)nc4)nc3)c(C#N)c2n1 [Example 1, 3-methoxy-6-((6-(((6-(trifluoromethyl)pyridin-3-yl)methyl)amino)pyridin-3-yl)amino)quinoxaline-5-carbonitrile]
IC50 [1]: > 10 µM
IC50 [2]: 1 to 10 µM
IC50 [3]: > 10 µM
IC50 [4]: 1 to 10 µM

COc1cc(Nc2ccc3ncc(N4CCOCC4)nc3c2C#N)ccc1OCC1CCN(C)CC1 [Example 42, 6-((3-methoxy-4-((1-methylpiperidin-4-yl)methoxy)phenyl)amino)-3-morpholinoquinoxaline-5-carbonitrile]
IC50 [1]: > 10 µM
IC50 [2]: 1 to 10 µM
IC50 [3]: 1 to 10 µM
IC50 [4]: 1 to 10 µM

COc1cc(Nc2ccc3ncc(N4CCOCC4)nc3c2C#N)ccc1OCC1(C)COC1 [Example 41, 6-((3-methoxy-4-((3-methyloxetan-3-yl)methoxy)phenyl)amino)-3-morpholinoquinoxaline-5-carbonitrile]
IC50 [1]: > 10 µM
IC50 [2]: 1 to 10 µM
IC50 [3]: > 10 µM
IC50 [4]: 1 to 10 µM

COc1ccc(COc2ccc(Oc3ccc4ncc(OC)nc4c3C#N)cc2OC)cc1 [Example 10, 3-methoxy-6-(3-methoxy-4-((4-methoxpenzyl)oxy)phenoxy)quinoxaline-5-carbonitrile]
IC50 (PDGFRβ kinase): > 1 µM

COc1cnc2ccc(Nc3ccc(OCc4cccnc4)c(OC)c3)c(C#N)c2n1 [Example 8, 3-methoxy-6-((3-methoxy-4-(pyridin-3-ylmethoxy)phenyl)amino)quinoxaline-5-carbonitrile]
IC50 [1]: > 10 µM
IC50 [2]: 1 to 10 µM
IC50 [3]: > 10 µM
IC50 [4]: > 10 µM

COc1cc(Nc2ccc3ncc(N4CCOCC4)nc3c2C#N)ccc1OCc1cnc(C)nc1 [Example 128, 6-((3-methoxy-4-((2-methylpyrimidin-5-yl)methoxy)phenyl)amino)-3-morpholinoquinoxaline-5-carbonitrile]
IC50 (FLT3 kinase): > 1 µM
IC50 (PDGFRβ kinase): > 1 µM
IC50 (c-KIT kinase; class symbol): 0.3 to 1 µM

CCOc1cc(Nc2ccc3ncc(N4CCOCC4)nc3c2C#N)ccc1OCc1ccncc1 [Example 47, 6-((3-ethoxy-4-(pyridin-4-ylmethoxy)phenyl)amino)-3-morpholinoquinoxaline-5-carbonitrile]
IC50 [1]: > 10 µM
IC50 [2]: 1 to 10 µM
IC50 [3]: 1 to 10 µM
IC50 [4]: > 10 µM

COc1cc(Nc2ccc3ncc(N4CCOCC4)nc3c2C#N)ccc1OCc1ccc(C)nc1 [Example 54, 6-((3-methoxy-4-((6-methylpyridin-3-yl)methoxy)phenyl)amino)-3-morpholinoquinoxaline-5-carbonitrile]
IC50 (FLT3 kinase): > 1 µM
IC50 (PDGFRβ kinase): > 1 µM
IC50 (c-KIT kinase; class symbol): < 0.1 µM

COc1cc(Nc2ccc3ncc(N4CCOCC4)nc3c2C#N)ccc1OCC1CCCC1 [Example 44, 6-((4-(cyclopentylmethoxy)-3-methoxyphenyl)amino)-3-morpholinoquinoxaline-5-carbonitrile]
IC50 [1]: > 10 µM
IC50 [2]: 1 to 10 µM
IC50 [3]: 1 to 10 µM
IC50 [4]: 1 to 10 µM

COc1cnc2ccc(Nc3ccc(OCc4cccnc4)nc3)c(C#N)c2n1 [Example 6, 3-methoxy-6-((6-(pyridin-3-ylmethoxy)pyridin-3-yl)amino)quinoxaline-5-carbonitrile]
IC50 [1]: > 10 µM
IC50 [2]: 1 to 10 µM
IC50 [3]: > 10 µM
IC50 [4]: > 10 µM

COc1cc(Nc2ccc3ncc(N4CCOCC4)nc3c2C#N)ccc1OCc1cccnc1 [Example 43, 6-((3-methoxy-4-(pyridin-3-ylmethoxy)phenyl)amino)-3-morpholinoquinoxaline-5-carbonitrile]
IC50 (FLT3 kinase): > 1 µM
IC50 (PDGFRβ kinase): > 1 µM
IC50 (c-KIT kinase; class symbol): < 0.1 µM

CCOc1cc(Oc2ccc3ncc(OC)nc3c2C#N)ccc1OCc1ccc(OC)cc1 [Example 30, 6-(3-ethoxy-4-((4-methoxybenzyl)oxy)phenoxy)-3-methoxyquinoxaline-5-carbonitrile]
IC50 (FLT3 kinase): > 1 µM
IC50 (PDGFRβ kinase): > 1 µM
IC50 (c-KIT kinase; bound): > 1 µM

COc1ccc(CNc2ccc(Nc3ccc4ncc(OC)nc4c3C#N)cc2OC)cc1 [Example 14, 3-methoxy-6-((3-methoxy-4-((4-methoxybenzyl)amino)phenyl)amino)quinoxaline-5-carbonitrile]
IC50 [1]: > 10 µM
IC50 [2]: 1 to 10 µM
IC50 [3]: > 10 µM
IC50 [4]: > 10 µM

COc1cc(Nc2ccc3ncc(N4CCOCC4)nc3c2C#N)ccc1OCc1cnn(C2CC2)c1 [Example 134, 6-((4-((1-cyclopropyl-1H-pyrazol-4-yl)methoxy)-3-methoxy-phenyl)amino)-3-morpholinoquinoxaline-5-carbonitrile]
IC50 (FLT3 kinase): > 1 µM
IC50 (PDGFRβ kinase): > 1 µM
IC50 (c-KIT kinase; class symbol): < 0.1 µM

COc1cnc2ccc(Nc3ccc(OC)c(OC)c3)c(C#N)c2n1 [Example 11, 6-((3,4-dimethoxyphenyl)amino)-3-methoxyquinoxaline-5-carbonitrile]
IC50 [1]: > 10 µM
IC50 [2]: 1 to 10 µM
IC50 [3]: > 10 µM
IC50 [4]: 1 to 10 µM

— US10689362B2, “Quinoxaline compounds as type III receptor tyrosine kinase inhibitors” (Development Center for Biotechnology, priority 2016, dated 2020)
